Laboratory results published in US20020128228A1, “Compositions and methods for the treatment of cancer” (priority 2000, published 2002).
Like-named read-outs stand apart in the source and are kept apart here.

Key:
[1] = single dose schedule, cited from earlier work
[2] = after intravenous administration; cited from earlier work

Row | Structure (SMILES) | recurrence (malignant melanoma; single treatment with thalidomide continued for one year) | metastases and adenopathy (malignant melanoma; thalidomide alone, maximum 200 mg/d, after dacarbazine was discontinued, additional 3 months) | nausea and vomiting ([1]; dosages up to 700 mg/m^2) | nausea and vomiting ([1]; doses higher than 700 mg/m^2) | half life distribution (plasma, biexponential decline) [2] [h]
1 | O=C1CCC(N2C(=O)c3ccccc3C2=O)C(=O)N1 (racemic) [thalidomide, 2-(2,6-dioxo-3-piperidinyl)-1H-isoindole-1,3(2H)-dione] | only recurrence in the leg | resolution of the metastases continued and virtually no adenopathy was detected | – | – | –
2 | Cn1nnc2c(C(N)=O)ncn2c1=O [temozolomide, 8-carbamoyl-3-methyl-imidazo-[5.1.d]-1,2,3,5-tetrazin-4(3H)-one] | – | – | mild | Grade 4 toxicity | 1.8
